From patent US6479435B1, “Diaryl ethers and processes for their preparation and herbicidal and desiccant compositions containing them” (ISK Americas Incorporated, priority 1997, dated 2002)

How the values were obtained:
Assay type in all cases: in vivo
[1] = tested on: soybean (Glycine max L., var. Pella 86, SOY); assay: Post-emerge greenhouse test, crop damage rating; details: 14 days after application
How it was run: (§1)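 Compounds in acetone with 0.25% v/v non-ionic surfactant were track-sprayed at 187 l/ha over plants at the 2-3 leaf stage, at 63 to 1000 g ai/ha. Pots were bottom-watered. Injury was scored visually 14 days later on a 0-100 scale, where 0 is no damage and 100 is complete plant death.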

[2] = tested on: common ragweed (Ambrosia artemisiifolia L., AMBEL); assay: Post-emerge greenhouse herbicide test, phytotoxicity rating; details: 14 days after application
How it was run: as §1

[3] = tested on: redroot pigweed (Amaranthus retroflexus, AMARE); assay: Pre-emerge greenhouse herbicide test, phytotoxicity rating; details: 14 days after application, rating scale 0-100
How it was run: (§2)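 Seeds sown in sandy loam mix one day before track-sprayer application of compounds in acetone at 125–1000 g ai/ha (187 l/ha), then surface-watered to incorporate and bottom-watered. Visual rating 14 days after application on a 0–100 scale (0 = no damage, 100 = all plants dead).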

[4] = tested on: common ragweed (Ambrosia artemisiifolia L., AMBEL); assay: as above; details: 14 days after application, rating scale 0-100
How it was run: as §2

[5] = tested on: large crabgrass (Digitaria sanguinalis, DIGSA); assay: as above; details: 14 days after application, rating scale 0-100
How it was run: as §2

[6] = tested on: barnyardgrass (Echinochloa crusgalli, ECHCG); assay: as above; details: 14 days after application, rating scale 0-100
How it was run: as §2

[7] = tested on: velvetleaf (Abutilon theophrasti, ABUTH); assay: as above; details: 14 days after application, rating scale 0-100
How it was run: as §2

[8] = tested on: green foxtail (Setaria viridis, SETVI); assay: as above; details: 14 days after application, rating scale 0-100
How it was run: as §2

[9] = tested on: lambsquarters (Chenopodium album, CHEAL); assay: as above; details: 14 days after application, rating scale 0-100
How it was run: as §2

[10] = tested on: Johnsongrass (Sorghum halepense, SORHA); assay: as above; details: 14 days after application, rating scale 0-100
How it was run: as §2

[11] = tested on: sicklepod (Cassia obtusifolia, CASOB); assay: as above; details: 14 days after application, rating scale 0-100
How it was run: as §2

[12] = tested on: ivyleaf morningglory (Ipomoea hederacea, IPOHE); assay: as above; details: 14 days after application, rating scale 0-100
How it was run: as §2

[13] = tested on: field corn (Zea mays L., var. Dekalb 535, CORN); assay: Pre-emerge greenhouse test, crop damage rating; details: 14 days after application, rating scale 0-100
How it was run: as §2

[14] = tested on: upland rice (Oryza sp., var.Tebonnet, RICE); assay: Pre-emerge greenhouse test, crop damage rating; details: 14 days after application, rating scale 0-100
How it was run: as §2

[15] = tested on: soybean (Glycine max L., var. Pella 86, SOY); assay: Pre-emerge greenhouse test, crop damage rating; details: 14 days after application, rating scale 0-100
How it was run: as §2

[16] = tested on: redroot pigweed (Amaranthus retroflexus, AMARE); assay: Post-emerge greenhouse herbicide test, phytotoxicity rating; details: 14 days after application
How it was run: as §1

[17] = tested on: large crabgrass (Digitaria sanguinalis, DIGSA); assay: as above; details: 14 days after application
How it was run: as §1

[18] = tested on: barnyardgrass (Echinochloa crusgalli, ECHCG); assay: as above; details: 14 days after application
How it was run: as §1

[19] = tested on: velvetleaf (Abutilon theophrasti, ABUTH); assay: as above; details: 14 days after application
How it was run: as §1

[20] = tested on: green foxtail (Setaria viridis, SETVI); assay: as above; details: 14 days after application
How it was run: as §1

[21] = tested on: lambsquarters (Chenopodium album, CHEAL); assay: as above; details: 14 days after application
How it was run: as §1

[22] = tested on: Johnsongrass (Sorghum halepense, SORHA); assay: as above; details: 14 days after application
How it was run: as §1

[23] = tested on: ivyleaf morningglory (Ipomoea hederacea, IPOHE); assay: as above; details: 14 days after application
How it was run: as §1

[24] = tested on: field corn (Zea mays L., var. Dekalb 535, CORN); assay: Post-emerge greenhouse test, crop damage rating; details: 14 days after application
How it was run: as §1

[25] = tested on: upland rice (Oryza sp., var.Tebonnet, RICE); assay: Post-emerge greenhouse test, crop damage rating; details: 14 days after application
How it was run: as §1

Cn1nc(-c2cc(Oc3ccc(C#N)cn3)c(Cl)cc2F)c(Cl)c1C(F)(F)F [Compound 1-4]
SOY crop damage rating (0-100) ([1]; 63 g al/ha): 0
SOY crop damage rating (0-100) ([1]; 500 g al/ha): 80
AMBEL phytotoxicity rating (0-100) ([2]; 63 g al/ha): 20
AMBEL phytotoxicity rating (0-100) ([2]; 500 g al/ha): 70
phytotoxicity rating AMARE ([3]; 125 g ai/ha): 100
phytotoxicity rating AMARE ([3]; 500 g ai/ha): 100
phytotoxicity rating AMBEL ([4]; 125 g ai/ha): 0
phytotoxicity rating AMBEL ([4]; 500 g ai/ha): 20
phytotoxicity rating DIGSA ([5]; 125 g ai/ha): 50
phytotoxicity rating DIGSA ([5]; 500 g ai/ha): 50
phytotoxicity rating ECHCG ([6]; 125 g ai/ha): 0
phytotoxicity rating ECHCG ([6]; 500 g ai/ha): 20
phytotoxicity rating ABUTH ([7]; 125 g ai/ha): 0
phytotoxicity rating ABUTH ([7]; 500 g ai/ha): 80
phytotoxicity rating SETVI ([8]; 125 g ai/ha): 90
phytotoxicity rating SETVI ([8]; 500 g ai/ha): 99
phytotoxicity rating CHEAL ([9]; 125 g ai/ha): 90
phytotoxicity rating CHEAL ([9]; 500 g ai/ha): 95
phytotoxicity rating SORHA ([10]; 125 g ai/ha): 20
phytotoxicity rating SORHA ([10]; 500 g ai/ha): 95
phytotoxicity rating CASOB ([11]; 125 g ai/ha): 0
phytotoxicity rating CASOB ([11]; 500 g ai/ha): 0
phytotoxicity rating IPOHE ([12]; 125 g ai/ha): 0
phytotoxicity rating IPOHE ([12]; 500 g ai/ha): 30
crop damage rating CORN ([13]; 125 g ai/ha): 10
crop damage rating CORN ([13]; 500 g ai/ha): 0
crop damage rating RICE ([14]; 125 g ai/ha): 30
crop damage rating SOY ([15]; 125 g ai/ha): 10
crop damage rating SOY ([15]; 500 g ai/ha): 0
AMARE phytotoxicity rating (0-100) ([16]; 63 g al/ha): 100
AMARE phytotoxicity rating (0-100) ([16]; 500 g al/ha): 100
DIGSA phytotoxicity rating (0-100) ([17]; 63 g al/ha): 20
DIGSA phytotoxicity rating (0-100) ([17]; 500 g al/ha): 40
ECHCG phytotoxicity rating (0-100) ([18]; 63 g al/ha): 0
ECHCG phytotoxicity rating (0-100) ([18]; 500 g al/ha): 50
ABUTH phytotoxicity rating (0-100) ([19]; 63 g al/ha): 30
ABUTH phytotoxicity rating (0-100) ([19]; 500 g al/ha): 90
SETVI phytotoxicity rating (0-100) ([20]; 63 g al/ha): 0
SETVI phytotoxicity rating (0-100) ([20]; 500 g al/ha): 70
CHEAL phytotoxicity rating (0-100) ([21]; 63 g al/ha): 0
CHEAL phytotoxicity rating (0-100) ([21]; 500 g al/ha): 100
SORHA phytotoxicity rating (0-100) ([22]; 63 g al/ha): 40
SORHA phytotoxicity rating (0-100) ([22]; 500 g al/ha): 80
IPOHE phytotoxicity rating (0-100) ([23]; 63 g al/ha): 70
IPOHE phytotoxicity rating (0-100) ([23]; 500 g al/ha): 100
CORN crop damage rating (0-100) ([24]; 63 g al/ha): 0
CORN crop damage rating (0-100) ([24]; 500 g al/ha): 0
RICE crop damage rating (0-100) ([25]; 63 g al/ha): 20
RICE crop damage rating (0-100) ([25]; 500 g al/ha): 50

Cn1nc(-c2cc(Oc3cccc(F)n3)c(Cl)cc2F)c(Cl)c1C(F)(F)F [Compound 1-5]
SOY crop damage rating (0-100) ([1]; 63 g al/ha): 40
SOY crop damage rating (0-100) ([1]; 500 g al/ha): 90
AMBEL phytotoxicity rating (0-100) ([2]; 63 g al/ha): 30
AMBEL phytotoxicity rating (0-100) ([2]; 500 g al/ha): 90
phytotoxicity rating AMARE ([3]; 125 g ai/ha): 100
phytotoxicity rating AMARE ([3]; 500 g ai/ha): 100
phytotoxicity rating AMBEL ([4]; 125 g ai/ha): 50
phytotoxicity rating AMBEL ([4]; 500 g ai/ha): 90
phytotoxicity rating DIGSA ([5]; 125 g ai/ha): 100
phytotoxicity rating DIGSA ([5]; 500 g ai/ha): 90
phytotoxicity rating ECHCG ([6]; 125 g ai/ha): 50
phytotoxicity rating ECHCG ([6]; 500 g ai/ha): 90
phytotoxicity rating ABUTH ([7]; 125 g ai/ha): 70
phytotoxicity rating ABUTH ([7]; 500 g ai/ha): 90
phytotoxicity rating SETVI ([8]; 125 g ai/ha): 100
phytotoxicity rating SETVI ([8]; 500 g ai/ha): 100
phytotoxicity rating CHEAL ([9]; 125 g ai/ha): 100
phytotoxicity rating CHEAL ([9]; 500 g ai/ha): 100
phytotoxicity rating SORHA ([10]; 125 g ai/ha): 50
phytotoxicity rating SORHA ([10]; 500 g ai/ha): 95
phytotoxicity rating CASOB ([11]; 125 g ai/ha): 50
phytotoxicity rating CASOB ([11]; 500 g ai/ha): 100
phytotoxicity rating IPOHE ([12]; 125 g ai/ha): 30
phytotoxicity rating IPOHE ([12]; 500 g ai/ha): 70
crop damage rating CORN ([13]; 125 g ai/ha): 20
crop damage rating CORN ([13]; 500 g ai/ha): 30
crop damage rating RICE ([14]; 125 g ai/ha): 30
crop damage rating RICE ([14]; 500 g ai/ha): 20
crop damage rating SOY ([15]; 125 g ai/ha): 0
crop damage rating SOY ([15]; 500 g ai/ha): 0
AMARE phytotoxicity rating (0-100) ([16]; 63 g al/ha): 100
AMARE phytotoxicity rating (0-100) ([16]; 500 g al/ha): 100
DIGSA phytotoxicity rating (0-100) ([17]; 63 g al/ha): 50
DIGSA phytotoxicity rating (0-100) ([17]; 500 g al/ha): 99
ECHCG phytotoxicity rating (0-100) ([18]; 63 g al/ha): 30
ECHCG phytotoxicity rating (0-100) ([18]; 500 g al/ha): 100
ABUTH phytotoxicity rating (0-100) ([19]; 63 g al/ha): 30
ABUTH phytotoxicity rating (0-100) ([19]; 500 g al/ha): 100
SETVI phytotoxicity rating (0-100) ([20]; 63 g al/ha): 0
SETVI phytotoxicity rating (0-100) ([20]; 500 g al/ha): 100
CHEAL phytotoxicity rating (0-100) ([21]; 63 g al/ha): 95
CHEAL phytotoxicity rating (0-100) ([21]; 500 g al/ha): 100
SORHA phytotoxicity rating (0-100) ([22]; 63 g al/ha): 30
SORHA phytotoxicity rating (0-100) ([22]; 500 g al/ha): 95
IPOHE phytotoxicity rating (0-100) ([23]; 63 g al/ha): 95
IPOHE phytotoxicity rating (0-100) ([23]; 500 g al/ha): 100
CORN crop damage rating (0-100) ([24]; 63 g al/ha): 10
CORN crop damage rating (0-100) ([24]; 500 g al/ha): 30
RICE crop damage rating (0-100) ([25]; 63 g al/ha): 40
RICE crop damage rating (0-100) ([25]; 500 g al/ha): 80
